Measurements: patent US20230240332A1, “METHOD FOR PREPARING AMINO ACID GRANULE FROM FERMENTATION BROTH” (CJ CHEILJEDANG CORPORATION, priority 2020, published 2023)

Experiment: Stability of tryptophan in fermentation broth with calcium added at molar ratio 0.4
Assay type: physicochemical
Details: calcium added at molar ratio of 0.4; increase in pH
Description: , respectively, in the same manner as in Examples 1-1 to 1-3 except that a tryptophan-containing fermentation broth having the composition disclosed in Table 2 was used, and the pH was 8.8 and 9.0, respectively. The sample of Comparative Example 2 was prepared by concentrating the tryptophan-containing fermentation broth without adding calcium hydroxide to the tryptophan-containing fermentation broth. […] The fermentation broth to which the slurry was added was concentrated to a degree of concentration of 30% (w/w) in Example 1-4 and a degree of concentration of 35% (w/w) in Example 1-5. It was confirmed that the fermentation broth gelled and lost fluidity when concentrated to a higher degree of concentration. At this time, in the case of the fermentation broth to which a slurry was not added, only a degree of concentration of about 25.5% (w/w) was achieved.

## N[C@@H](Cc1c[nH]c2ccccc12)C(=O)O [tryptophan]
  decomposition of tryptophan: decomposed into tryptamine, indole-acetate, and anthranilic acid
